Results as given in patent EP3398601A1, “NICOTINAMIDE FOR TREATING DYSLIPIDEMIA” (priority 2017, dated 2018).
Entries after “also recorded” stand apart in the source; their conditions may differ.

What was measured:
[1] = system: Apo(a); conditions: oral treatment with 1% nicotinic acid in the chow; female tg-Apo(a) mice; cited from earlier work
[2] = system: Lp(a); conditions: literature values (Carlson, 1989; Kotani, 2017); cited from earlier work
[3] = system: Lp(a); assay: Lp(a) plasma levels (Apo(a) ELISA) in transgenic Apo(a) mice given the substance in chow, cross-over design; conditions: for reduction of Lp(a): 1% orally as food supplement, compared to baseline levels
Protocol: In the transgenic Apo(a) mice (tg-Apo(a)) Apo(a) is expressed mainly in female mice.
Levels of Apo(a) were determined by means of ELISA and were expressed as Lp(a) in mg/dl as each molecule Apo(a) binds one molecule of LDL to form Lp(a).

[4] = system: NaPi2b; assay: Intestinal (ileum) NaPi2b expression, immune fluorescence and RNA, in 5/6 nephrectomized DBA/2 mice; assay type: in vivo, DBA/2 mouse
Protocol: Further, the effect of nicotinamide treatment on intestinal NaPi2b protein expression in a mouse model (DBA/2 mouse) was investigated.
(§1) For this purpose, 5/6 nephrectomized DBA/2 mice were used as model for vascular calcification. The mice were treated with nicotinamide (NA) in a concentration of 600 µg/mL in the drinking water.
Bars between columns indicate significant between groups differences (ANOVA with Tukey Post Test, p<0.05).

[5] = S-phosphate and fractional phosphate elimination in DBA/2 mice; assay type: in vivo; conditions: for fractional phosphate elimination (in words): DBA/2 mice
Protocol: as §1

[6] = system: FGF23; assay: FGF23 in DBA/2 mice; assay type: in vivo
Protocol: as §1

[7] = system: NaPi2b; assay: Renal NaPi2b protein expression, immune fluorescence, in 5/6 nephrectomized DBA/2 mice; conditions: 5/6 nephrectomized DBA/2 mice (CKD); Fig. 4
[8] = biological target: GPR109A receptor (Homo sapiens, UniProt Q8TDS4); conditions: cited from earlier work
Chain of GPR109A receptor (Q8TDS4 whole entry): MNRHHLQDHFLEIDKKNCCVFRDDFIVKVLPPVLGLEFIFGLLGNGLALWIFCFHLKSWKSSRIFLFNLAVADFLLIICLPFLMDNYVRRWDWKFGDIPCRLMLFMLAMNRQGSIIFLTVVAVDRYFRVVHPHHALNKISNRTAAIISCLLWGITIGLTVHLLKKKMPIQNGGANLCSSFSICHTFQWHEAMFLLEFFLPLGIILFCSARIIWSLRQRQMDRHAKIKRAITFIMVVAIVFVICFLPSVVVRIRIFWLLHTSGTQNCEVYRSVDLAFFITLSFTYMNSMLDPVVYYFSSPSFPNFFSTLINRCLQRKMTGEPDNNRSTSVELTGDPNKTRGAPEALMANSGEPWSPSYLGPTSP

[9] = given in combination with the phosphate binder sevelamer; cited from earlier work
[10] = system: NaPi2b; conditions: intraperitoneal administration; cited from earlier work
[11] = intraperitoneal administration; cited from earlier work

| SMILES | reduction in plasma Apo(a) protein [1] | reduces Lp(a) [2] | reduction of Lp(a) ([3]; after two weeks of treatment) | reduction of Lp(a) ([3]; after week 1) | intestinal NaPi2b protein / cotransporter content of the small intestine (in words) ([4]; 5/6 nephrectomized DBA/2 mice, NA 600 µg/mL in the drinking water, Fig. 3) | intestinal NaPi2b protein / cotransporter content of the small intestine (in words) ([4]; 5/6 nephrectomized DBA/2 mice, NA 600 µg/mL in the drinking water, Fig. 3, listed as Mg) | intestinal NaPi2b protein / cotransporter content of the small intestine (in words) ([4]; 5/6 nephrectomized DBA/2 mice, NA 600 µg/mL in the drinking water, Fig. 3, listed as magnesium carbonate (Mg)) | increase of cotransporter expression (intestinal NaPi2b) ([4]; 5/6 nephrectomized DBA/2 mice, treatment for 7 weeks, Fig. 3) | fractional phosphate elimination (in words) [5] | FGF23 (in words) [6] | renal NaPi2b protein expression (in words) [7] | NaPi2b-RNA of the small intestine (in words) ([4]; DBA/2 mice, NA 600 µg/mL in the drinking water) | S-phosphate (in words) ([5]; effect only in healthy DBA/2 mice with high phosphate diet (phosphorus content 1.03 % (w/w)), NA 600 µg/mL in the drinking water) | binding to GPR109A receptor (in words) [8] | treatment of hyperphosphatemia (in words) [9] | expression of NaPi2b (in words) [10] | gastrointestinal absorption of phosphate (in words) [11] | Lp(a) plasma levels lower compared to nicotinic acid ([3]; after 2 weeks of treatment, Fig. 1 legend) |
| --- | --- | --- | --- | --- | --- | --- | --- | --- | --- | --- | --- | --- | --- | --- | --- | --- | --- | --- |
| O=C(O)c1cccnc1 [nicotinic acid] | 43% | up to 35% | 50% | 37% |  |  |  |  |  |  |  |  |  |  |  |  |  |  |
| O=C(O)O [magnesium carbonate] |  |  |  |  | strongly enhances | notable increase | strong enhancement | 10 -fold | reduction | reduction | no significant difference compared to baseline; also recorded: no significant effects |  |  |  |  |  |  |  |
| NC(=O)c1cccnc1 [nicotinamide] |  |  | 77% | 67% |  |  |  |  | reduction | reduction |  | did not show any influence | decrease | does not bind or otherwise affect | ineffective | blocks | inhibits | more than 50% |
